Measurements taken from the NIST ThermoML archive (doi:10.1016/j.fluid.2017.09.005).
± gives the expanded uncertainty stated by the source.

Test: xn = mol fraction of the nth substance listed
Settings: Liquid; for viscosity: Pressure drop in straight capillary; for mass density: Vibrating tube method

## CO [methanol] + O
523.2 K, 20000 kPa, x1 = 0.1
  viscosity: 0.116 ± 0.009 mPa·s
  mass density: 767.8 ± 3 kg/m3
523.2 K, 20000 kPa, x1 = 0.2
  viscosity: 0.112 ± 0.009 mPa·s
  mass density: 724.7 ± 3.2 kg/m3
523.2 K, 20000 kPa, x1 = 0.3
  viscosity: 0.108 ± 0.009 mPa·s
  mass density: 686.4 ± 3.4 kg/m3
523.2 K, 20000 kPa, x1 = 0.4
  viscosity: 0.102 ± 0.009 mPa·s
  mass density: 652.8 ± 3.6 kg/m3
523.2 K, 20000 kPa, x1 = 0.6
  viscosity: 0.09 ± 0.008 mPa·s
  mass density: 597.1 ± 4 kg/m3
523.2 K, 20000 kPa, x1 = 0.8
  viscosity: 0.079 ± 0.008 mPa·s
  mass density: 552.1 ± 4.2 kg/m3
523.2 K, 20000 kPa, x1 = 1
  viscosity: 0.07 ± 0.008 mPa·s
  mass density: 517.5 ± 4.2 kg/m3
523.2 K, 30000 kPa, x1 = 0.1
  viscosity: 0.118 ± 0.009 mPa·s
  mass density: 781.4 ± 2.9 kg/m3
523.2 K, 30000 kPa, x1 = 0.2
  viscosity: 0.117 ± 0.009 mPa·s
  mass density: 740.7 ± 3 kg/m3
523.2 K, 30000 kPa, x1 = 0.3
  viscosity: 0.114 ± 0.009 mPa·s
  mass density: 705.9 ± 3.1 kg/m3
523.2 K, 30000 kPa, x1 = 0.4
  viscosity: 0.11 ± 0.009 mPa·s
  mass density: 677 ± 3.1 kg/m3
523.2 K, 30000 kPa, x1 = 0.6
  viscosity: 0.1 ± 0.009 mPa·s
  mass density: 628.4 ± 3.2 kg/m3
523.2 K, 30000 kPa, x1 = 0.8
  viscosity: 0.09 ± 0.008 mPa·s
  mass density: 591.4 ± 3.2 kg/m3
523.2 K, 30000 kPa, x1 = 1
  viscosity: 0.08 ± 0.008 mPa·s
  mass density: 563.57 ± 3.1 kg/m3
523.2 K, 40000 kPa, x1 = 0.1
  viscosity: 0.121 ± 0.009 mPa·s
  mass density: 791.9 ± 2.9 kg/m3
523.2 K, 40000 kPa, x1 = 0.2
  viscosity: 0.121 ± 0.009 mPa·s
  mass density: 754.4 ± 2.9 kg/m3
523.2 K, 40000 kPa, x1 = 0.3
  viscosity: 0.119 ± 0.009 mPa·s
  mass density: 722.3 ± 2.9 kg/m3
523.2 K, 40000 kPa, x1 = 0.4
  viscosity: 0.115 ± 0.009 mPa·s
  mass density: 694.7 ± 3 kg/m3
523.2 K, 40000 kPa, x1 = 0.6
  viscosity: 0.107 ± 0.009 mPa·s
  mass density: 650.9 ± 3 kg/m3
523.2 K, 40000 kPa, x1 = 0.8
  viscosity: 0.098 ± 0.009 mPa·s
  mass density: 618.2 ± 3 kg/m3
523.2 K, 40000 kPa, x1 = 1
  viscosity: 0.089 ± 0.008 mPa·s
  mass density: 593.3 ± 2.9 kg/m3
573.2 K, 20000 kPa, x1 = 0.1
  viscosity: 0.084 ± 0.008 mPa·s
  mass density: 674.5 ± 4.2 kg/m3
573.2 K, 20000 kPa, x1 = 0.2
  viscosity: 0.08 ± 0.008 mPa·s
  mass density: 619.8 ± 5.4 kg/m3
573.2 K, 20000 kPa, x1 = 0.3
  viscosity: 0.074 ± 0.008 mPa·s
  mass density: 569.3 ± 5.8 kg/m3
573.2 K, 20000 kPa, x1 = 0.4
  viscosity: 0.067 ± 0.008 mPa·s
  mass density: 522.3 ± 5.6 kg/m3
573.2 K, 20000 kPa, x1 = 0.6
  viscosity: 0.054 ± 0.008 mPa·s
  mass density: 439.6 ± 5.2 kg/m3
573.2 K, 20000 kPa, x1 = 0.8
  viscosity: 0.045 ± 0.008 mPa·s
  mass density: 380.5 ± 4.8 kg/m3
573.2 K, 20000 kPa, x1 = 1
  viscosity: 0.042 ± 0.008 mPa·s
  mass density: 345.3 ± 4.5 kg/m3
573.2 K, 30000 kPa, x1 = 0.1
  viscosity: 0.089 ± 0.008 mPa·s
  mass density: 696.2 ± 3.7 kg/m3
573.2 K, 30000 kPa, x1 = 0.2
  viscosity: 0.085 ± 0.008 mPa·s
  mass density: 650.4 ± 3.8 kg/m3
573.2 K, 30000 kPa, x1 = 0.3
  viscosity: 0.078 ± 0.008 mPa·s
  mass density: 610.2 ± 3.9 kg/m3
573.2 K, 30000 kPa, x1 = 0.4
  viscosity: 0.078 ± 0.008 mPa·s
  mass density: 575.5 ± 4 kg/m3
573.2 K, 30000 kPa, x1 = 0.6
  viscosity: 0.072 ± 0.008 mPa·s
  mass density: 520.4 ± 4.1 kg/m3
573.2 K, 30000 kPa, x1 = 0.8
  viscosity: 0.065 ± 0.008 mPa·s
  mass density: 482.3 ± 4 kg/m3
573.2 K, 30000 kPa, x1 = 1
  viscosity: 0.063 ± 0.008 mPa·s
  mass density: 457.63 ± 3.8 kg/m3
573.2 K, 40000 kPa, x1 = 0.1
  viscosity: 0.094 ± 0.009 mPa·s
  mass density: 714.3 ± 3.6 kg/m3
573.2 K, 40000 kPa, x1 = 0.2
  viscosity: 0.091 ± 0.008 mPa·s
  mass density: 673.1 ± 3.6 kg/m3
573.2 K, 40000 kPa, x1 = 0.3
  viscosity: 0.087 ± 0.008 mPa·s
  mass density: 638 ± 3.6 kg/m3
573.2 K, 40000 kPa, x1 = 0.4
  viscosity: 0.084 ± 0.008 mPa·s
  mass density: 608 ± 3.7 kg/m3
573.2 K, 40000 kPa, x1 = 0.6
  viscosity: 0.075 ± 0.008 mPa·s
  mass density: 562.4 ± 3.7 kg/m3
573.2 K, 40000 kPa, x1 = 0.8
  viscosity: 0.069 ± 0.008 mPa·s
  mass density: 530.6 ± 3.6 kg/m3
573.2 K, 40000 kPa, x1 = 1
  viscosity: 0.065 ± 0.008 mPa·s
  mass density: 511 ± 3.6 kg/m3
618.2 K, 20000 kPa, x1 = 0.1
  viscosity: 0.06 ± 0.008 mPa·s
  mass density: 497.6 ± 6 kg/m3
618.2 K, 20000 kPa, x1 = 0.2
  viscosity: 0.035 ± 0.008 mPa·s
  mass density: 299.3 ± 7.4 kg/m3
618.2 K, 20000 kPa, x1 = 0.3
  viscosity: 0.026 ± 0.008 mPa·s
  mass density: 208.9 ± 8.3 kg/m3
618.2 K, 20000 kPa, x1 = 0.4
  viscosity: 0.025 ± 0.008 mPa·s
  mass density: 198.2 ± 8 kg/m3
618.2 K, 20000 kPa, x1 = 0.6
  viscosity: 0.027 ± 0.008 mPa·s
  mass density: 198.4 ± 6.4 kg/m3
618.2 K, 20000 kPa, x1 = 0.8
  viscosity: 0.027 ± 0.008 mPa·s
  mass density: 203.9 ± 5.3 kg/m3
618.2 K, 20000 kPa, x1 = 1
  viscosity: 0.029 ± 0.008 mPa·s
  mass density: 210.5 ± 4.6 kg/m3
618.2 K, 30000 kPa, x1 = 0.1
  viscosity: 0.071 ± 0.008 mPa·s
  mass density: 586 ± 4.5 kg/m3
618.2 K, 30000 kPa, x1 = 0.2
  viscosity: 0.065 ± 0.008 mPa·s
  mass density: 524.1 ± 5.1 kg/m3
618.2 K, 30000 kPa, x1 = 0.3
  viscosity: 0.058 ± 0.008 mPa·s
  mass density: 473.1 ± 5.3 kg/m3
618.2 K, 30000 kPa, x1 = 0.4
  viscosity: 0.052 ± 0.008 mPa·s
  mass density: 430.4 ± 5.3 kg/m3
618.2 K, 30000 kPa, x1 = 0.6
  viscosity: 0.047 ± 0.008 mPa·s
  mass density: 381.7 ± 4.9 kg/m3
618.2 K, 30000 kPa, x1 = 0.8
  viscosity: 0.044 ± 0.008 mPa·s
  mass density: 360.2 ± 4.7 kg/m3
618.2 K, 30000 kPa, x1 = 1
  viscosity: 0.043 ± 0.008 mPa·s
  mass density: 350.4 ± 4.6 kg/m3
618.2 K, 40000 kPa, x1 = 0.1
  viscosity: 0.078 ± 0.008 mPa·s
  mass density: 624.9 ± 4.1 kg/m3
618.2 K, 40000 kPa, x1 = 0.2
  viscosity: 0.073 ± 0.008 mPa·s
  mass density: 578.5 ± 4.2 kg/m3
618.2 K, 40000 kPa, x1 = 0.3
  viscosity: 0.069 ± 0.008 mPa·s
  mass density: 544.1 ± 4.2 kg/m3
618.2 K, 40000 kPa, x1 = 0.4
  viscosity: 0.065 ± 0.008 mPa·s
  mass density: 512 ± 4.2 kg/m3
618.2 K, 40000 kPa, x1 = 0.6
  viscosity: 0.059 ± 0.008 mPa·s
  mass density: 470.3 ± 4.1 kg/m3
618.2 K, 40000 kPa, x1 = 0.8
  viscosity: 0.055 ± 0.008 mPa·s
  mass density: 446.2 ± 4.1 kg/m3
618.2 K, 40000 kPa, x1 = 1
  viscosity: 0.053 ± 0.008 mPa·s
  mass density: 427.7 ± 4.1 kg/m3
